Test results taken from PMC6429710, “Structure–activity relationships in a series of antiplasmodial thieno[2,3-b]pyridines” (Malaria Journal, 2019).

Tests used:
PfGSK-3 = target: T1, PfGSK-3 (Plasmodium falciparum, UniProt O77344); assay: biochemical; assay type: biochemical
T1 construct: 6xHis; made in house; host or cells: Escherichia coli C41
T1 sequence (O77344 1-440): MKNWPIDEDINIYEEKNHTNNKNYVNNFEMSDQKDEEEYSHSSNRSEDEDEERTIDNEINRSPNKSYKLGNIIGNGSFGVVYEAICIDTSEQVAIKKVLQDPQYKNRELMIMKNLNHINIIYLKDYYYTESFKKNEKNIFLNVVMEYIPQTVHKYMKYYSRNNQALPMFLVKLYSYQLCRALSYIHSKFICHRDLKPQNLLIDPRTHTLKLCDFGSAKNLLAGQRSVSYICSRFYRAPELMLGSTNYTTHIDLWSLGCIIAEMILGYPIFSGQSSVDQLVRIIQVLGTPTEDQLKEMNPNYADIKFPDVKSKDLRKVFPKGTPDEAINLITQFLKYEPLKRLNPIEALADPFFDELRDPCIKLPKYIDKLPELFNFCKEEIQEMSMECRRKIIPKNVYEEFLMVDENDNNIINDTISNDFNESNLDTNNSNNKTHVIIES
Protocol: PfGSK-3 was cloned into pOPIN F expression vector [41] using ligation independent cloning (InFusion, Takara Clontech). Expression vector was transformed into Escherichia coli C41 and expression of recombinant PfGSK3-6xHis was induced by incubation with 1 mM IPTG at 16 °C overnight.
Kinase activity was measured using Kinase-Glo Plus Luminescent Kinase Assay (Promega). 20 ng recombinant GSK-3 were incubated for 30 min at 30 °C in the presence of 12 μM GS-1 peptide substrate ([…]pSEDEEE, pS stands for phosphorylated serine, Biaffin GmbH & Co KG/proteinkinase.de) and 6 μM ATP (ultra pure, Promega) in a total volume of 5 μL kinase reaction buffer (40 mM Tris/HCl pH 7.5; 20 mM MgCl2; 0.1 mg/mL BSA). Kinase reaction mix was transferred to a solid white 384 well plate (NUNC, Thermo Scientific) and kinase reaction was stopped by adding 5 μL RT Kinase-Glo reagent. After 10 min luminescence was measured in an EnVision multilabel plate reader (Perkin Elmer, integration time 0.5 s/well). […] All samples were normalized to a negative control (reaction without kinase). Data points were plotted into Graphpad Prism, normalized to a DMSO control and IC50 values were calculated using nonlinear regression.

HsGSK-3 = HsGSK-3 (Homo sapiens, UniProt P49841); assay: Kinase-Glo Plus assay for inhibition of HsGSK-3; assay type: biochemical; conditions: 6 µM ATP; mean of three determinations, range in brackets
HsGSK-3, sequence (P49841 whole entry): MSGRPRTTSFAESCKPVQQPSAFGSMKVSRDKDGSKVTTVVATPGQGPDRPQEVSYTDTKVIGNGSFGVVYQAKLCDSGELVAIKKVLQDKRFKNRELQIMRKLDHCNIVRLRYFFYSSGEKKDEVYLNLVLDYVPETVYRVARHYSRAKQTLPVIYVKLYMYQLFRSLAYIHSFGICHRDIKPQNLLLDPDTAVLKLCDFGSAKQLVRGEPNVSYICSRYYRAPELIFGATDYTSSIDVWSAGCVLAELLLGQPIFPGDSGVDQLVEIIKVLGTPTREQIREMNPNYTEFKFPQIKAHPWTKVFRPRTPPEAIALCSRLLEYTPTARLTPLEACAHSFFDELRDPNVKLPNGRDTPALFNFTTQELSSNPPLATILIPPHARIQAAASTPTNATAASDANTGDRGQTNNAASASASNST
Protocol: Kinase reaction mix was transferred to a solid white 384 well plate (NUNC, Thermo Scientific) and kinase reaction was stopped by adding 5 μL RT Kinase-Glo reagent. After 10 min luminescence was measured in an EnVision multilabel plate reader (Perkin Elmer, integration time 0.5 s/well). […] All samples were normalized to a negative control (reaction without kinase). Data points were plotted into Graphpad Prism, normalized to a DMSO control and IC50 values were calculated using nonlinear regression.

[1] = system: asexual erythrocytic stages of transgenic NF54-luc P. falciparum; assay: Luciferase-based viability screening for antiplasmodial activity; assay type: cell-based, Plasmodium falciparum; conditions: 48 h
Protocol: For the luciferase-based viability assays, asexual erythrocytic stages of transgenic NF54-luc P. falciparum were used. These parasites constitutively express high luciferase levels. The parasites were cultured as described previously. Parasite cultures with parasitaemia of 0.5–1% were dispensed in triplicate into white 96-well flat-bottom plates (each well contains 250 µL) (NUNC, Roskilde, Denmark) and incubated in the presence of 3 µM test compounds for 48 h (37 °C, 90% N2, 5% CO2, and 5% O2). 0.01% DMSO was included in the untreated infected RBC cultures as negative control, since the compounds stock initially was diluted in DMSO and each treatment well also contained 0.01% DMSO. Subsequently, 100 µL RPMI1640 media was removed from each well and a 100 µL volume of the Bright-Glo® substrate solution was added to each well. The resultant cleavage product of the reaction, light, was measured using a […] luminometer (Thermo), to ascertain viable parasites. Untreated cultures were used as negative controls and to calculate the inhibition rate (0% inhibition of parasite growth). Experiments were performed in triplicate and were repeated as a whole at least twice. Blasticidin (Sigma-Aldrich, St. Louis, MO, USA), used for selection of transfected parasites, was included as a positive control on each plate and gave > 90% inhibition of parasite growth at concentration 2 µg/mL. […] For active compounds IC50 values were determined from dose–response curves. Calculation of parasite growth inhibition, of the IC50 values and statistical analysis were carried out using GraphPad Prism Version 6.0b (GraphPad Software, Inc. San Diego, CA).

[2] = Kinetic solubility by laser nephelometry; assay type: physicochemical; conditions: aqueous phosphate buffer pH 7.4, 1% DMSO, 25 °C, mean ± standard deviation
Protocol: Kinetic solubility indicates the solubility of the most rapidly precipitating form. Kinetic solubilities of 1 and 4h were determined by laser nephelometry using the […] nephelometer (BMG LabTech, Ortenberg, Germany) and F-bottom transparent 96-well plates. The instrument uses red laser light (635 nm, 80% intensity), which passes through the 96-well plate and which is scattered by turbid suspensions. Each compound was measured six times at 25 °C by preparing three independent stock solutions in concentrations of 5 to 10 mM in DMSO. From each stock solution two independent dilution series were prepared. Based on preliminary experiments, dilution concentrations were chosen such that at least five to six concentrations below and above the expected point of precipitation were recorded. To the 96-well plate containing 198 μL aqueous phosphate buffer at pH 7.4, 2 μL of each dilution sample in DMSO was added and shaken for 10 s. at 700 rpm (double orbital). […] The pH was adjusted by adding sulfuric acid. First, the plates were scanned without content to quantify the background, which was later subtracted from the obtained values of each individual well. As blank, 2 μL of neat DMSO was added to the phosphate buffer. Close to the point of precipitation, particle concentration can be assumed to be proportional to the intensity of scattered light. […]

## CN(C)CCN(C)c1ccc(-c2c(C#N)c(N)nc3sc(C(=O)c4cccc(Cl)c4)c(N)c23)c(Cl)c1 [4h]
PfGSK-3; 6 µM ATP, mean of three determinations, range in brackets, read-out: IC50 [µM], PfGSK-3 (Kinase Glo Plus)
  IC50: 0.72 µM
PfGSK-3; Kinase Glo Plus assay, PfGSK-3 versus HsGSK-3
  selectivity index plasmodial versus human GSK-3: 56
HsGSK-3
  IC50: 40.2 µM
[1]; 3 µM test compound, luciferase readout, ± SD
  % inhibition ± SD, PfNF54-Luc at 3 µM: 99.9 ± 0.1%
[1]; from dose-response curves, read-out: IC50 [µM], PfNF54-Luc
  IC50: 1.2 µM
[2]
  S0 pH 7.4, exp (kinetic solubility): 4.8 ± 0.9 µM
